What was measured:
Hsc70 = biological target: T1, Hsc70 (Homo sapiens, UniProt P11142); conditions: 5 uM chaperone, 1 mM ATP, Mg2+, pH 8, 25 C
T1 construct: gene HSPA8

PfHsp70-x [1] = biological target: T2, PfHsp70-x (Plasmodium falciparum, UniProt A0A143ZXN1); assay: MESG-coupled ATPase assay; assay type: biochemical; conditions: 5 uM chaperone alone, 1 mM ATP, pH 8, 25 C
T2 construct: gene PF3D7_0831700; aa 25-679, export signal peptide excluded; codon-optimized synthetic DNA; N-terminal His6 tag cut by 3C protease; expressed in E. coli Rosetta2(DE3)

PfHsp70-x [2] = biological target: T2, PfHsp70-x; assay: MESG-coupled ATPase assay; assay type: biochemical; conditions: 5 uM chaperone alone, 1 mM ATP, pH 8, 25 C; remark: listed apart in the source

T1 sequence (P11142 whole entry): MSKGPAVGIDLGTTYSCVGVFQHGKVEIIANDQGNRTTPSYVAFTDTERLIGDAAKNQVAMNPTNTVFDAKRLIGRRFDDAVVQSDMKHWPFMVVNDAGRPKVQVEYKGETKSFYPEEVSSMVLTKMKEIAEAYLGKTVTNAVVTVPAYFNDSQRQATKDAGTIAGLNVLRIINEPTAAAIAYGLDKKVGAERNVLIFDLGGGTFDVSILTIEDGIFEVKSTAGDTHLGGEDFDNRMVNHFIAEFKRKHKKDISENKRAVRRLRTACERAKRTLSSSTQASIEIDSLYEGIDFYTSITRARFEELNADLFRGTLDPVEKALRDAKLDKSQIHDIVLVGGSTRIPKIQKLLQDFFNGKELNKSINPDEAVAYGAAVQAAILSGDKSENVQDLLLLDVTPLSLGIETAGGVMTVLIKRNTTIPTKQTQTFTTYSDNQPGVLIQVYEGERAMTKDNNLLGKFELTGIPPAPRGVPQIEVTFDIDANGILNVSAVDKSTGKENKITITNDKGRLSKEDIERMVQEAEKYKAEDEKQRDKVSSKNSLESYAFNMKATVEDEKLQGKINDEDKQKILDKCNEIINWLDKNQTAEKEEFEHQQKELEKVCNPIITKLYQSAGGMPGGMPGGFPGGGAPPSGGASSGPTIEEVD

Nc1ncnc2c1ncn2[C@@H]1O[C@H](COP(=O)(O)OP(=O)(O)OP(=O)(O)O)[C@@H](O)[C@H]1O [ATP]
MESG-coupled ATPase assay (Hsc70): fold changes in ATP hydrolysis activities of PfHsp70-x (A, B) or human Hsc70 (C, D)

CC1(C)OC2=C(CC1Br)C(=O)C(=O)c1ccccc12 (stereo not drawn) [BBL, bromo-β-lapachona]
apparent half-maximal inhibitory concentration (PfHsp70-x [1]): BBL inhibited PfHsp70-x in our ATPase assays with low micromolar apparent half-maximal inhibitory concentration

CN(C)c1ccc2nc3ccc(=[N+](C)C)cc-3sc2c1 [methylene blue]
half-maximal inhibitory concentration (PfHsp70-x [2]): methylene blue inhibits both basal and stimulated PfHsp70-x activity

Reference: PMC6894070, “The Plasmodium falciparum Hsp70-x chaperone assists the heat stress response of the malaria parasite” (The FASEB Journal, 2019)
